According to the supplement of paper PMC10307832:

compound: N#CC1(c2ccc(NC(=O)c3cccnc3NCc3ccncc3)cc2)CCCC1 [Apatinib] + CC1(C)CCC(c2ccc(Cl)cc2)=C(CN2CCN(c3ccc(C(=O)NS(=O)(=O)c4ccc(N[C@H](CCN5CCOCC5)CSc5ccccc5)c(S(=O)(=O)C(F)(F)F)c4)cc3)CC2)C1 [Navitoclax] (partner 0.5 µM); test: relative viability (nuclei count vs DMSO), 5 days (fraction); higher = more cells survive; details: first compound 0.08 µM
Summary of the method: (§1)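 A single step with final 0.05% Triton X-100, 1% formaldehyde and 1 ug/ml Hoechst fixed the cells and stained nuclei 5 days after treatment. Lung cancer cell lines in 1536-well plates had been treated by pin tool the day after seeding with one drug alone or a fixed anchor-drug dose plus five library-drug doses (not always all listed) in √10 steps, and nuclei were counted on 4× images. Relative viability is the ratio of nuclei in treated wells to nuclei in vehicle wells, taken as the median of duplicate plates.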

| Cell Line | relative viability |
| --- | --- |
| HCC-15 | 0.733 |
| HCC-44 | 0.961 |
| HCC-78 | 0.884 |
| HCC-366 | 1.1 |
| HCC-827 | 1.07 |
| HOP-62 | 1.04 |
| IA-LM | 0.947 |
| LC-2-ad | 0.414 |
| LCLC-97TM1 | 0.485 |
| LK-2 | 0.879 |
| NCI-H727 | 0.465 |
| NCI-H1299 | 1.06 |
| NCI-H1703 | 0.996 |
| NCI-H1792 | 0.572 |

same assay, conditions: first compound 0.253 µM

| Cell Line | relative viability |
| --- | --- |
| 201T | 1.24 |
| A549 | 1.34 |
| A-427 | 0.911 |
| BEN | 0.0606 |
| CAL-12T | 1.23 |
| COR-L23 | 1.02 |
| COR-L 105 | 1.03 |
| Calu-6 | 0.919 |
| ChaGo-K-1 | 1.4 |
| EBC-1 | 0.55 |
| EKVX | 0.946 |
| EMC-BAC-2 | 1.13 |
| EPLC-272H | 1.05 |
| H3255 | 0.62 |
| HARA | 1.18 |
| HCC-15 | 0.718 |
| HCC-44 | 1.05 |
| HCC-78 | 0.631 |
| HCC-366 | 1.08 |
| HCC-827 | 1.06 |
| HOP-62 | 1.01 |
| IA-LM | 0.709 |
| LC-2-ad | 0.457 |
| LCLC-97TM1 | 0.401 |
| LK-2 | 0.857 |
| NCI-H727 | 0.552 |
| NCI-H1299 | 1.05 |
| NCI-H1703 | 0.731 |
| NCI-H1792 | 0.596 |

same assay, conditions: first compound 0.8 µM

| Cell Line | relative viability |
| --- | --- |
| 201T | 1.19 |
| A549 | 1.22 |
| A-427 | 0.934 |
| BEN | 0.0462 |
| CAL-12T | 1.1 |
| COR-L23 | 0.871 |
| COR-L 105 | 0.695 |
| Calu-6 | 0.751 |
| ChaGo-K-1 | 0.971 |
| EBC-1 | 0.46 |
| EKVX | 0.98 |
| EMC-BAC-2 | 1.14 |
| EPLC-272H | 0.961 |
| H3255 | 0.34 |
| HARA | 1.1 |
| HCC-15 | 0.681 |
| HCC-44 | 0.979 |
| HCC-78 | 0.821 |
| HCC-366 | 1.04 |
| HCC-827 | 0.956 |
| HOP-62 | 1.01 |
| IA-LM | 0.633 |
| LC-2-ad | 0.387 |
| LCLC-97TM1 | 0.369 |
| LK-2 | 0.885 |
| NCI-H727 | 0.384 |
| NCI-H1299 | 1.03 |
| NCI-H1703 | 0.357 |
| NCI-H1792 | 0.569 |

same assay, conditions: first compound 2.53 µM

| Cell Line | relative viability |
| --- | --- |
| 201T | 1.27 |
| A549 | 1.19 |
| A-427 | 0.853 |
| BEN | 0.0661 |
| CAL-12T | 1.17 |
| COR-L23 | 0.885 |
| COR-L 105 | 0.841 |
| Calu-6 | 0.648 |
| ChaGo-K-1 | 0.888 |
| EBC-1 | 0.27 |
| EKVX | 0.888 |
| EMC-BAC-2 | 1.07 |
| EPLC-272H | 1.04 |
| H3255 | 0.52 |
| HARA | 1.13 |
| HCC-15 | 0.608 |
| HCC-44 | 0.946 |
| HCC-78 | 0.58 |
| HCC-366 | 0.961 |
| HCC-827 | 0.998 |
| HOP-62 | 0.859 |
| IA-LM | 0.352 |
| LC-2-ad | 0.287 |
| LCLC-97TM1 | 0.397 |
| LK-2 | 0.769 |
| NCI-H727 | 0.425 |
| NCI-H1299 | 1.05 |
| NCI-H1703 | 0.188 |
| NCI-H1792 | 0.559 |

same assay, conditions: first compound 8 µM

| Cell Line | relative viability |
| --- | --- |
| 201T | 1.18 |
| A549 | 1.02 |
| A-427 | 0.478 |
| BEN | 0.0637 |
| CAL-12T | 1.03 |
| COR-L23 | 0.827 |
| COR-L 105 | 0.636 |
| Calu-6 | 0.626 |
| ChaGo-K-1 | 0.993 |
| EBC-1 | 0.237 |
| EKVX | 0.826 |
| EMC-BAC-2 | 0.974 |
| EPLC-272H | 0.731 |
| H3255 | 0.607 |
| HARA | 1.07 |
| HCC-15 | 0.653 |
| HCC-44 | 0.892 |
| HCC-78 | 0.648 |
| HCC-366 | 1.01 |
| HCC-827 | 0.781 |
| HOP-62 | 0.878 |
| IA-LM | 0.208 |
| LC-2-ad | 0.235 |
| LCLC-97TM1 | 0.18 |
| LK-2 | 0.634 |
| NCI-H727 | 0.531 |
| NCI-H1299 | 0.937 |
| NCI-H1703 | 0.205 |
| NCI-H1792 | 0.592 |

compound: N#CC1(c2ccc(NC(=O)c3cccnc3NCc3ccncc3)cc2)CCCC1 [Apatinib] + COc1cc2c(Oc3ccc(NC(=O)C4(C(=O)Nc5ccc(F)cc5)CC4)cc3F)ccnc2cc1OCCCN1CCOCC1 [Foretinib] (partner 0.25 µM); test: as above; details: first compound 0.08 µM
Summary of the method: as §1

| Cell Line | relative viability |
| --- | --- |
| 201T | 1.15 |
| A549 | 0.945 |
| A-427 | 1.22 |
| BEN | 0.477 |
| CAL-12T | 1.3 |
| COR-L23 | 1.03 |
| COR-L 105 | 1.36 |
| Calu-6 | 0.994 |
| ChaGo-K-1 | 0.991 |
| EBC-1 | 0.111 |
| EKVX | 0.71 |
| EMC-BAC-2 | 1.08 |
| EPLC-272H | 0.773 |
| H3255 | 0.973 |
| HARA | 0.976 |
| HCC-15 | 1.1 |
| HCC-78 | 0.6 |
| HCC-366 | 0.977 |
| HCC-827 | 1.05 |
| HOP-62 | 1.15 |
| IA-LM | 1.33 |
| LC-2-ad | 0.935 |
| LCLC-97TM1 | 0.907 |
| LCLC-103H | 0.785 |
